Measurements taken from patent US7169785B2, “Methods and compositions of novel triazine compounds” (Reddy US Therapeutics, Inc., priority 2001, dated 2007).
Read-outs that look alike come from different tables or passages of the source.

What was measured:
[1] = test system: Human aortic smooth muscle cells; assay: Smooth muscle cell proliferation assay (anti-proliferation assay, perlecan); type: cell-based
Procedure: Human aortic smooth muscle cells (Clonetics) were used. Cells were grown in basal medium containing 5% fetal bovine serum supplemented with growth factors, basic fibroblast growth factor, epidermal growth factor and insulin. […] The cells were then serum starved for 24 h to induce quiescence. Fresh growth medium containing no compound or 10 μM compound was then added and further incubated for 24 h. Cell number was determined by using a cell proliferation assay kit (Celltiter96 AQueous from Promega).

[2] = test system: IL6; assay: Inflammation Data of Table 8: IL6 production compared to cells that did not receive compound (stimulus AGE or TNF not given); type: cell-based; conditions: for Inflammation Data (result in words): concentration not given
From the text: Additional bioactivity data for compounds of the present invention are presented in Table 8, where compounds that have at least the activity of effecting cellular proliferation or at least the activity of modulating inflammation activity, as measured by the assays taught herein, are provided. […] The inclusion of compounds in the categories of the Tables disclosed herein, including this Table, is not to be seen as limiting, in that compounds included in such Tables have at least the activity shown for inclusion in the Table and may have more or other activities. Nor are the Tables to be seen as limiting in that these are the only compounds disclosed herein that have that activity, representative compounds are shown in the Tables that have at least that particular activity for inclusion in the Table. One or more compounds disclosed herein have at least an activity that has utility in treatment of disease states. Note that any hydrogen atoms that are required for any atom to attain its usual valence in a structure presented in Table 8, whether a carbon atom or a heteroatom, should be inferred if it is not specifically indicated.

[3] = test system: cells; assay: Cytotoxicity / lactate dehydrogenase assay and visual observation of cells; type: cell-based
Procedure: Assays for determining the activity of compounds capable of cytotoxic activity include those taught in herein and others that are well known in the art. In general, to determine if there is cytotoxic activity associated with a compound, cells of a particular type, in a growing stage or a quiescient stage, are treated with the compound of interest. Various parameters of cell death or cessation are used to measure the effects of the compound. For example, the amount of nucleic acid or protein synthesis can be measured or visual observation of the state of the cells, such as release from the substrate, can be used to measure the state of the cells.
An appropriate number of cells are plated in four 96-well plates, one plate for “day 0” and three plates for days 1–3. Cells are treated with at least one compound of the present invention in varying concentrations with and without the apoptosis inducer cisplatin (2 μM) (“+cis” or “−cis”). Unteated cells are also assayed with and without cisplatin. After transfection, the plates are incubated at 37° C. overnight.
An appropriate number of cells are plated in four 96-well plates, one plate for “day 0” and three plates for days 1–3. Cells are treated with at least one compound of the present invention in varying concentrations. The negative control cells have normal media conditions, a duplicate set of wells is treated with the composition in which the compound is provided, but there is no added compound and the positive control cells are treated with the apoptosis inducer cisplatin (2 μM). All of the cells are transfected with a vector having a promoter that is responsive to apoptosis conditions. When apoptosis occurs, the promoter is turned on and the lactic dehydrogenase gene is activated and the enzyme protein is made and active. Activity is easily detected with a color change. After transfection, the plates are incubated at 37° C. overnight.
About 8 mls of warmed alpha MEM LDH lysis buffer (2% Triton X100) and about 8 mls of culture media (½ dilution) are combined. Two 96-well v-bottom plates are prepared, one labeled “lysis” and one labeled “supernatant.” To lyse the cells, about 200 μl Alpha MEM lysis buffer (diluted ½) is added to one test plate from which the supernatant has been removed and added to the plate labeled supernatant. After mixing, about 200 μl of lysed cells are transferred to the lysis plate. Both the lysis and supernatant plates are centrifuged at about 1600 rpm for about 10 min. After centrifugation, about 100 μl of both the supernatant or lysate is transferred to corresponding 96-well flat-bottomed plates.
The assay for cytotoxicity uses the Cytotoxicity Detection Kit (LDH) from Roche Diagnostics Corp. (Indianapolis, Ind.). Using the directionts provided, the dye solution is mixed and added each well of the lysate and supernatant plate and incubated for up to 20–25 min at 15–25° C. in the dark.

[4] = test system: IL-6; assay: AGE (G-HSA)-induced inflammatory response determined by IL-6 ELISA in HAEC; type: cell-based, human; conditions: Homo sapiens; for activity at 10 µM: 24 h, Compds tested @ 10 uM, IL6, read-out: % IL6 production compare to AGE stimulation of IL6 (100%)
In short: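 Human aortic endothelial cells grown to ≥90% confluence, then treated with compounds and stimuli in serum-free medium with 0.2% albumin. Secreted IL-6 in collected media measured by sandwich ELISA (2 ug/ml capture, 200 ng/ml biotinylated detection antibody, streptavidin-HRP), read at 450 nm.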

[5] = test system: IL-6; assay: TNF-α-induced IL-6 production determined by IL-6 ELISA in HAEC; type: cell-based, human; conditions: Homo sapiens, 24 h; Compds tested @ 10 uM; HAEC, IL6; read-out: % IL6 production compare to TNF stimulation of IL6 (100%)

| Structure (SMILES) | inhibition at 10 µM ([2]; at 10 uM) [%] | Toxicity ([3]; toxic or cause cell death) | Proliferation Data (result in words) ([1]; concentration not given) | also measured |
| --- | --- | --- | --- | --- |
| COc1ccc(Nc2nc(NC3CCCCCC3)nc(OC3CCCN(C(C)=O)C3)n2)cc1Cl (stereo not shown) [drawing 992] | – | – | – | Proliferation Data (result in words) ([1]; 5 & 10 uM screens): Not active at 5 & 10 uM; Inflammation Data, inhibition ([2]; at 10 uM): complete inhibition at 10 uM |
| CCN1CCCC1CNc1nc(Nc2ccc(OC)c(F)c2)nc(Nc2ccc(OC)c(F)c2)n1 (stereo not shown) | 35 | – | – | inhibition at 5 µM ([2]; at 5 uM): 25% |
| CCN1CCCC1CNc1nc(Nc2cnc3ccccc3c2)nc(NC2CCCCCC2)n1 (stereo not shown) [Compound 3, N^2-cycloheptyl-N^4-[(1-ethyl-2-pyrrolidinyl)methyl]-N^6-(3-quinolinyl)-1,3,5-triazine-2,4,6-triamine] | – | toxic | – | activity at 10 µM [4]: 1% |
| COc1ccc(Nc2nc(NCCN(C)C)nc(NC3CCCCCC3)n2)cc1F [Compound 93, N^2-cycloheptyl-N^4-[2-(dimethylamino)ethyl]-N^6-(3-fluoro-4-methoxyphenyl)-1,3,5-triazine-2,4,6-triamine] | – | toxic | – | activity at 10 µM [5]: 13%; activity at 10 µM [4]: 6%; IC50 ([4]; IL6, unit inferred, read-out: IC50 (AGE stimulation of IL6)): 3.36 µM |
| COc1ccc(Nc2nc(NC3CCCCCC3)nc(Oc3ccccc3F)n2)cc1Cl [drawing 1000] | – | – | Not active | Inflammation Data (result in words) [2]: Not Active |
| COc1ccc(Nc2nc(NC3CCCCCC3)nc(OC(C)C)n2)cc1Cl [drawing 993] | < 25 | – | Not active | – |
| COc1ccc(Nc2nc(NC3CC3)nc(N(C)C3CCN(C)CC3)n2)cc1F | 25 | – | Not active | – |
| COc1ccc(Nc2nc(NC3CCCCCC3)nc(OCc3cccc(C)n3)n2)cc1Cl | 60 | – | Not active | – |
| COc1ccc(Nc2nc(Cl)nc(Nc3ccc(OC)c(F)c3)n2)cc1F | 20 | – | Not active | Inflammation Data, inhibition ([2]; at 5 uM): noeffect |
| Oc1ccc(Nc2nc(Cl)nc(Cl)n2)cc1Cl | 35 | – | Not active | – |
| COc1ccc(Nc2nc(NC3CCCCCC3)nc(N3CCSCC3)n2)cc1Cl [drawing 999] | – | – | Not active | Inflammation Data (result in words) [2]: Not Active |
| CCN1CCCC1CNc1nc(Nc2ccccc2Cl)nc(NC2CCCCCC2)n1 (stereo not shown) [Compound 21, N^2-(2-chlorophenyl)-N^4-cycloheptyl-N^6-[(1-ethyl-2-pyrrolidinyl)methyl]-1,3,5-triazine-2,4,6-triamine] | – | toxic | – | – |
| CCN1CCCC1CNc1nc(Nc2ccc(OC)c(F)c2)nc(N2CCCC3CCCCC32)n1 (stereo not shown) [Compound 59, N^2-[(1-ethyl-2-pyrrolidinyl)methyl]-N^4-(3-fluoro-4-methoxyphenyl)-N^6-octahydro-1(2H)-quinolinyl-1,3,5-triazine-2,4-diamine] | – | toxic | – | – |
| COc1ccc(Nc2nc(OCC3CCCCC3)nc(N(C)C3CCN(C)CC3)n2)cc1Cl [Compound 119, N-(3-Chloro-4-methoxy-phenyl)-6-cyclohexylmethoxy-N′-methyl-N′-(1-methyl-piperidin-4-yl)-[1,3,5]triazine-2,4-diamine] | – | – | – | Toxicity [3]: toxic |
| Oc1ccc(Nc2nc(Cl)nc(NC3CCCCCC3)n2)cc1Cl | 25 | – | Not active | inhibition at 5 µM ([2]; at 5 uM): 25% |
| CCN1CCCC1CNc1nc(Nc2ccc(Cl)c(Cl)c2)nc(NC2CCCCCC2)n1 (stereo not shown) [Compound 7, N^2-cycloheptyl-N^4-(3,4-dichlorophenyl)-N^6-[(1-ethyl-2-pyrrolidinyl)methyl]-1,3,5-triazine-2,4,6-triamine] | – | toxic | – | – |
| CCOC(=O)c1ccc(Nc2nc(NCC3CCCN3CC)nc(NC3CCCCCC3)n2)cc1 (stereo not shown) [Compound 14, Ethyl 4-[(4-(cycloheptylamino)-6-{[(1-ethyl-2-pyrrolidinyl)methyl]amino}-1,3,5-triazin-2-yl)-amino]benzoate] | – | toxic | – | – |
| CCN1CCCC1CNc1nc(Nc2ccc(Cl)cc2)nc(NC2CCCCCC2)n1 (stereo not shown) [Compound 12, N^2-(4-chlorophenyl)-N^4-cycloheptyl-N^6-[(1-ethyl-2-pyrrolidinyl)methyl]-1,3,5-triazine-2,4,6-triamine] | – | toxic | – | – |
